According to patent publication EP0266896A1, “7-( (Meta-substituted) phenylglycine) 1-carba-1-dethiacephalosporins” (priority 1986, dated 1988):
Structures can show the parent of a compound that is named as a salt. Where two headings read alike, the source gives them in different places.

Experiments:
Escherichia coli TEM = assay: MIC by standard agar dilution test; type: cell-based; details: β-lactamase producer
Text: (§1) The antibiotic activity of selected compounds of Formula I and, for comparison, a compound of related structure, is illustrated by the following in vitro test data. In Table I, the minimum inhibitory concentrations (MIC) for the compounds against a wide range of gram-positive and gram-negative bacteria are presented. The MIC values were obtained by the standard agar dilution test method. The excellent in vitro activity of the claimed compounds is especially surprising in light of their high solution stability. High solution stability of a β-lactam compound was until now thought to indicate low acylating ability of the β-lactam, and thus low antibacterial activity for the compound.

[1] = test system: Hemophilus influenzae C.L.; assay: MIC by standard agar dilution test; type: cell-based
Text: as §1

Salmonella typhi 1335 = assay: MIC by standard agar dilution test; type: cell-based
Text: as §1

Salmonella typhi X514 = assay: MIC by standard agar dilution test; type: cell-based
Text: as §1

Shigella sonnei N9 = assay: MIC by standard agar dilution test; type: cell-based
Text: as §1

[2] = test system: Staphylococcus aureus S13E; assay: MIC by standard agar dilution test; type: cell-based; details: β-lactamase producer, penicillin G resistant
Text: as §1

[3] = test system: Staphylococcus aureus V41; assay: MIC by standard agar dilution test; type: cell-based; details: Staphylococcus aureus V41, penicillin G resistant
Text: as §1

[4] = test system: Staphylococcus epidermidis EPI1; assay: MIC by standard agar dilution test; type: cell-based; details: Staphylococcus epidermidis EPI1, methicillin resistant
Text: as §1

[5] = test system: Staphylococcus epidermidis EPI2; assay: MIC by standard agar dilution test; type: cell-based; details: Staphylococcus epidermidis EPI2, methicillin resistant
Text: as §1

[6] = test system: Streptococcus pneumoniae Park I; assay: MIC by standard agar dilution test; type: cell-based
Text: as §1

[7] = Intravenous pharmacokinetics in the rat, plasma levels monitored by bioassay with an E. coli strain
Experimental: (§2) The tests were performed by methods well-recognized in the art.
(§3) Specifically, the male Sprague-Dawley rats were administered a 20 mg/kg dose intravenously. The plasma levels of the administered compound were monitored by bioassay with an E. coli strain.

[8] = rat, in vivo, iv, 20 mg/kg
Experimental: as §2, §3

Compound	Minimum Inhibitory Concentration (Salmonella typhi 1335)	Minimum Inhibitory Concentration (Salmonella typhi X514)	Minimum Inhibitory Concentration (Shigella sonnei N9)	Minimum Inhibitory Concentration [2]	AUC (area under the curve) [8]	Half-Life [8]	further results
CS(=O)(=O)Nc1cccc([C@@H](N)C(=O)N[C@@H]2C(=O)N3C(C(=O)O)=C(Cl)CC[C@H]23)c1.O=C(O)C(F)(F)F [Example 1, 7β-[2ʹ-(R)-2ʹ-(m-(Methylsulfonamido)phenyl)-2ʹ-Aminoactamido]-3-Chloro-3-(1-Carba-1-Dethiacephem)-4-Carboxyli c Acid Trifluoroacetate Salt]	0.5 µg/mL	0.5 µg/mL	0.5 µg/mL	2 µg/mL			Minimum Inhibitory Concentration (Escherichia coli TEM): 0.25 µg/mL; Minimum Inhibitory Concentration [1]: 2 µg/mL; Minimum Inhibitory Concentration [3]: 4 µg/mL; Minimum Inhibitory Concentration [4]: 4 µg/mL; Minimum Inhibitory Concentration [5]: 2 µg/mL; Minimum Inhibitory Concentration [6]: 1 µg/mL; Half-Life ([7]; rat plasma, 20 mg/kg intravenously, bioassay, model-independent analysis): 5.57 h
CS(=O)(=O)Nc1cccc([C@@H](N)C(=O)N[C@@H]2C(=O)N3C(C(=O)O)=C(Cl)CC[C@H]23)c1 [Example 2, 7β-[2ʹ-(R)-2ʹ-(m-(Methylsulfonamido)phenyl)-2ʹ-Aminoactamido]-3-Chloro-3-(1-Carba-1-Dethiacephem)-4-Carboxyli c Acid, Zwitterionic Salt]							Half-Life ([7]; rat, plasma, iv, 20 mg/kg): 5.28 h
CCS(=O)(=O)Nc1cccc(C(N)C(=O)N[C@@H]2C(=O)N3C(C(=O)O)=C(Cl)CC[C@H]23)c1.O=C(O)C(F)(F)F (stereo partly drawn) [Example 3, 7β-[2ʹ-(R,S)-2ʹ-(m-(Ethylsulfonamido)phenyl)-2ʹ-Aminoaetamido]-3-Chloro-3-(1-Carba-1-Dethiacephem)-4-Carboxyl ic Acid Trifluoroacetate Salt]					18	0.55 h	
CCS(=O)(=O)Nc1cccc([C@@H](N)C(=O)N[C@@H]2C(=O)N3C(C(=O)O)=C(Cl)CC[C@H]23)c1 [Example 4, 7β-[2ʹ-(R)-2ʹ-(m-(Ethylsulfonamido)phenyl)-2ʹ-Aminoace amido)-3-Chloro-3-(1-Carba-1-Dethiacephem)-4-Carboxylic Acid, Zwitterionic Salt]	2 µg/mL	2 µg/mL	2 µg/mL	2 µg/mL	12	0.683 h	
CCCS(=O)(=O)Nc1cccc([C@@H](N)C(=O)N[C@@H]2C(=O)N3C(C(=O)O)=C(Cl)CC[C@H]23)c1 [Example 5, 7β-[2ʹ-(R)-2ʹ-(m-(n-Propylsulfonamido)phenyl)-2ʹ-Aminocetamido]-3-Chloro-3-(1-Carba-1-Dethiacephem)-4-Carboxy lic Acid, Zwitterionic Salt.]					20	0.65 h	
